# In PubChem BioAssay AID2060906 (Molecular Pharmacology Branch, DTP, NCI, 2025):
# System: 485176-168-R4-J1-PDC complex spheroid growth
# Experiment: Anticancer human tumor 485176-168-R4-J1-PDC patient-derived pancreatic adenocarcinoma cell line growth inhibition [RAS]
# Conditions: for viability, T/C: stronger effect = lower value
# Summary of the method: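 Multi-cell-type spheroids: tumor cells plus HUVEC endothelial cells and mesenchymal stem cells. RAS-pathway inhibitors were combined with targeted agents, each dosed in half-log steps down from clinical Cmax, or from 10 microM when Cmax was unknown.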
# [1] = curve of first compound, second compound 0.000949 µM
# [2] = curve of first compound, second compound 0.003 µM
# [3] = curve of first compound, second compound 0.00949 µM
# [4] = curve of first compound, second compound 0.03 µM
# [5] = curve of first compound, second compound 0.0949 µM
# [6] = curve of first compound, second compound 0.3 µM
# [7] = second compound 0.000949 µM, first compound 0.0316 µM
# [8] = second compound 0.000949 µM, first compound 0.1 µM
# [9] = second compound 0.000949 µM, first compound 0.316 µM
# [10] = second compound 0.000949 µM, first compound 1 µM
# [11] = second compound 0.000949 µM, first compound 3.16 µM
# [12] = second compound 0.000949 µM, first compound 10 µM
# [13] = second compound 0.003 µM, first compound 0.0316 µM
# [14] = second compound 0.003 µM, first compound 0.1 µM
# [15] = second compound 0.003 µM, first compound 0.316 µM
# [16] = second compound 0.003 µM, first compound 1 µM
# [17] = second compound 0.003 µM, first compound 3.16 µM
# [18] = second compound 0.003 µM, first compound 10 µM
# [19] = second compound 0.00949 µM, first compound 0.0316 µM
# [20] = second compound 0.00949 µM, first compound 0.1 µM
# [21] = second compound 0.00949 µM, first compound 0.316 µM
# [22] = second compound 0.00949 µM, first compound 1 µM
# [23] = second compound 0.00949 µM, first compound 3.16 µM
# [24] = second compound 0.00949 µM, first compound 10 µM
# [25] = second compound 0.03 µM, first compound 0.0316 µM
# [26] = second compound 0.03 µM, first compound 0.1 µM
# [27] = second compound 0.03 µM, first compound 0.316 µM
# [28] = second compound 0.03 µM, first compound 1 µM
# [29] = second compound 0.03 µM, first compound 3.16 µM
# [30] = second compound 0.03 µM, first compound 10 µM
# [31] = second compound 0.0949 µM, first compound 0.0316 µM
# [32] = second compound 0.0949 µM, first compound 0.1 µM
# [33] = second compound 0.0949 µM, first compound 0.316 µM
# [34] = second compound 0.0949 µM, first compound 1 µM
# [35] = second compound 0.0949 µM, first compound 3.16 µM
# [36] = second compound 0.0949 µM, first compound 10 µM
# [37] = second compound 0.3 µM, first compound 0.0316 µM
# [38] = second compound 0.3 µM, first compound 0.1 µM
# [39] = second compound 0.3 µM, first compound 0.316 µM
# [40] = second compound 0.3 µM, first compound 1 µM
# [41] = second compound 0.3 µM, first compound 3.16 µM
# [42] = second compound 0.3 µM, first compound 10 µM
# [43] = compound alone, run of 05/20/2024
# 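Further: spheroids exposed to compounds for seven days before readout.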
# 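Wherever viability, T/C is given: luminescence viability expressed relative to DMSO vehicle wells set as 100%.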
smiles,measurement,setting,value
CCC(CC)c1cc(NC2CCC(N)C2)n2nccc2n1 (stereo not drawn) + CCn1c(-c2cccnc2C(C)OC)c2c3cc(ccc31)N1CCOC(CC(NC(=O)C(C(C)C)N(C)C(=O)C3(F)CCN(C(=O)C#CC(C)(C)N(C)C)CC3)C(=O)N3CCCC(N3)C(=O)OCC(C)(C)C2)C1,IC50,[1],1260 nM
same,IC50,[2],1440 nM
same,IC50,[3],1270 nM
same,IC50,[4],1080 nM
same,IC50,[5],1010 nM
same,IC50,[6],521 nM
same,"viability, T/C",[7],94.6%
same,"viability, T/C",[8],117%
same,"viability, T/C",[9],86%
same,"viability, T/C",[10],64.1%
same,"viability, T/C",[11],2.09%
same,"viability, T/C",[12],0.42%
same,"viability, T/C",[13],105%
same,"viability, T/C",[14],104%
same,"viability, T/C",[15],100%
same,"viability, T/C",[16],72.1%
same,"viability, T/C",[17],2.19%
same,"viability, T/C",[18],0.46%
same,"viability, T/C",[19],88.4%
same,"viability, T/C",[20],79.7%
same,"viability, T/C",[21],98.8%
same,"viability, T/C",[22],62.6%
same,"viability, T/C",[23],2.5%
same,"viability, T/C",[24],0.59%
same,"viability, T/C",[25],96%
same,"viability, T/C",[26],105%
same,"viability, T/C",[27],95.9%
same,"viability, T/C",[28],53.7%
same,"viability, T/C",[29],2.5%
same,"viability, T/C",[30],0.41%
same,"viability, T/C",[31],87%
same,"viability, T/C",[32],77.3%
same,"viability, T/C",[33],94.2%
same,"viability, T/C",[34],50.3%
same,"viability, T/C",[35],2.64%
same,"viability, T/C",[36],0.46%
same,"viability, T/C",[37],82.9%
same,"viability, T/C",[38],72.8%
same,"viability, T/C",[39],64.5%
same,"viability, T/C",[40],32.7%
same,"viability, T/C",[41],2.76%
same,"viability, T/C",[42],0.53%
CC(Nc1ccc2c(c1)OCCn1cc(N3C(=O)OCC3C(F)F)nc1-2)C(N)=O (stereo not drawn),"viability, T/C",compound 0.0316 µM,97.9% [middle of 4 runs]
same,"viability, T/C",compound 0.1 µM,89.2% [middle of 4 runs]
same,"viability, T/C",compound 0.316 µM,84.7% [middle of 4 runs]
same,"viability, T/C",compound 1 µM,75.3% [middle of 4 runs]
same,"viability, T/C",compound 3.16 µM,69.1% [middle of 4 runs]
same,"viability, T/C",compound 10 µM,55.5% [middle of 4 runs]
same,IC50,curve of compound,> 10000 nM
NC1c2ccccc2OC12CCN(c1cnc3c(N4CCCc5ncccc54)n[nH]c3n1)CC2 (stereo not drawn) + CCn1c(-c2cccnc2C(C)OC)c2c3cc(ccc31)N1CCOC(CC(NC(=O)C(C(C)C)N(C)C(=O)C3(F)CCN(C(=O)C#CC(C)(C)N(C)C)CC3)C(=O)N3CCCC(N3)C(=O)OCC(C)(C)C2)C1,IC50,[1],> 10000 nM
same,IC50,[2],> 10000 nM
same,IC50,[3],> 10000 nM
same,IC50,[4],> 10000 nM
same,IC50,[5],> 10000 nM
same,IC50,[6],> 10000 nM
same,"viability, T/C",[7],91.4%
same,"viability, T/C",[8],78.7%
same,"viability, T/C",[9],94.2%
same,"viability, T/C",[10],85.9%
same,"viability, T/C",[11],67.8%
same,"viability, T/C",[12],71.6%
same,"viability, T/C",[13],74.5%
same,"viability, T/C",[14],89.4%
same,"viability, T/C",[15],84.1%
same,"viability, T/C",[16],85.5%
same,"viability, T/C",[17],85.7%
same,"viability, T/C",[18],70.2%
same,"viability, T/C",[19],85%
same,"viability, T/C",[20],75.6%
same,"viability, T/C",[21],81.9%
same,"viability, T/C",[22],86.8%
same,"viability, T/C",[23],89.9%
same,"viability, T/C",[24],63.6%
same,"viability, T/C",[25],88.8%
same,"viability, T/C",[26],86.8%
same,"viability, T/C",[27],80.2%
same,"viability, T/C",[28],71.3%
same,"viability, T/C",[29],93.9%
same,"viability, T/C",[30],61.1%
same,"viability, T/C",[31],75%
same,"viability, T/C",[32],71.8%
same,"viability, T/C",[33],72.7%
same,"viability, T/C",[34],65.9%
same,"viability, T/C",[35],82.2%
same,"viability, T/C",[36],61.7%
same,"viability, T/C",[37],59.9%
same,"viability, T/C",[38],76.7%
same,"viability, T/C",[39],57%
same,"viability, T/C",[40],70.2%
same,"viability, T/C",[41],62.9%
same,"viability, T/C",[42],61.7%
CCn1c(-c2cccnc2C(C)OC)c2c3cc(ccc31)N1CCOC(CC(NC(=O)C(C(C)C)N(C)C(=O)C3(F)CCN(C(=O)C#CC(C)(C)N(C)C)CC3)C(=O)N3CCCC(N3)C(=O)OCC(C)(C)C2)C1 (stereo not drawn),"viability, T/C",compound 0.003 µM,104% [middle of 8 runs]
same,"viability, T/C",compound 0.00949 µM,107% [middle of 8 runs]
same,"viability, T/C",compound 0.03 µM,93.8% [middle of 8 runs]
same,"viability, T/C",compound 0.0949 µM,93% [middle of 8 runs]
same,"viability, T/C",compound 0.3 µM,81.7% [middle of 8 runs]
same,IC50,[43],> 300 nM
CCn1c(-c2cc(N3CCN(C)CC3)cnc2C(C)OC)c2c3cc(ccc31)-c1csc(n1)CC(NC(=O)C1CC1C)C(=O)N1CCCC(N1)C(=O)OCC(C)(C)C2 (stereo not drawn),"viability, T/C",compound 0.000949 µM,102% [middle of 8 runs]
same,"viability, T/C",compound 0.003 µM,102% [middle of 8 runs]
same,"viability, T/C",compound 0.00949 µM,92.2% [middle of 8 runs]
same,IC50,[43],> 300 nM
Nc1ccn(C2OC(CO)C(O)C2(F)F)c(=O)n1 (stereo not drawn) + CCn1c(-c2cccnc2C(C)OC)c2c3cc(ccc31)N1CCOC(CC(NC(=O)C(C(C)C)N(C)C(=O)C3(F)CCN(C(=O)C#CC(C)(C)N(C)C)CC3)C(=O)N3CCCC(N3)C(=O)OCC(C)(C)C2)C1,IC50,[1],16.7 nM
same,IC50,[2],18.4 nM
same,IC50,[3],15.6 nM
same,IC50,[4],16.8 nM
same,IC50,[5],14.1 nM
same,IC50,[6],12 nM
same,"viability, T/C","second compound 0.000949 µM, first compound 0.00316 µM",76.9%
same,"viability, T/C","second compound 0.000949 µM, first compound 0.01 µM",79.7%
same,"viability, T/C",[7],15%
same,"viability, T/C",[8],7.41%
same,"viability, T/C",[9],10.3%
same,"viability, T/C",[10],9.82%
same,"viability, T/C","second compound 0.003 µM, first compound 0.00316 µM",91.1%
same,"viability, T/C","second compound 0.003 µM, first compound 0.01 µM",87.6%
same,"viability, T/C",[13],16.5%
same,"viability, T/C",[14],7.59%
same,"viability, T/C",[15],8.56%
same,"viability, T/C",[16],11.9%
same,"viability, T/C","second compound 0.00949 µM, first compound 0.00316 µM",87.6%
same,"viability, T/C","second compound 0.00949 µM, first compound 0.01 µM",72.9%
same,"viability, T/C",[19],13.3%
same,"viability, T/C",[20],9.05%
same,"viability, T/C",[21],9.37%
same,"viability, T/C",[22],12.1%
same,"viability, T/C","second compound 0.03 µM, first compound 0.00316 µM",91.4%
same,"viability, T/C","second compound 0.03 µM, first compound 0.01 µM",79.9%
same,"viability, T/C",[25],13.5%
same,"viability, T/C",[26],8.42%
same,"viability, T/C",[27],8.07%
same,"viability, T/C",[28],6.73%
same,"viability, T/C","second compound 0.0949 µM, first compound 0.00316 µM",87.8%
same,"viability, T/C","second compound 0.0949 µM, first compound 0.01 µM",66.9%
same,"viability, T/C",[31],9.91%
same,"viability, T/C",[32],4.39%
same,"viability, T/C",[33],7.38%
same,"viability, T/C",[34],6.23%
same,"viability, T/C","second compound 0.3 µM, first compound 0.00316 µM",71.7%
same,"viability, T/C","second compound 0.3 µM, first compound 0.01 µM",58%
same,"viability, T/C",[37],8.51%
same,"viability, T/C",[38],3.06%
same,"viability, T/C",[39],4.98%
same,"viability, T/C",[40],5.37%
